Some results are limits rather than exact numbers.

For test [1], the target named is human orexin-2 receptor (hOX2R) (Homo sapiens (Human), UniProt O43614). The test is described as follows: FLIPR Ca2+ flux assay, orexin-2 receptor. The format is cell-based. The note with it: CHO cells expressing the receptor; agonist 70 pM Ala-6,12 orexin-A. How it is done: The utility of the compounds in accordance with the present invention as orexin receptor OX1R and/or OX2R antagonists may be readily determined without undue experimentation by methodology well known in the art, including the “FLIPR Ca^2+ Flux Assay” (Okumura et al., Biochem. Biophys. Res. Comm. 280:976-981, 2001). In a typical experiment the OX1 and OX2 receptor antagonistic activity of the compounds of the present invention was determined in accordance with the following experimental method. For intracellular calcium measurements, Chinese hamster ovary (CHO) cells expressing the rat orexin-1 receptor or the human orexin-2 receptor, are grown in Iscove's modified DMEM containing 2 mM L-glutamine, […], 1% hypoxanthine-thymidine supplement, 100 U/ml penicillin, 100 μg/ml streptomycin and 10% heat-inactivated fetal calf serum (FCS). The cells are seeded at 20,000 cells/well into Becton-Dickinson black 384-well clear bottom sterile plates coated with poly-D-lysine. All reagents were from GIBCO-Invitrogen Corp. The seeded plates are incubated overnight at 37° C. and 5% CO2. Ala-6,12 human orexin-A as the agonist is prepared as a 1 mM stock solution in 1% bovine serum albumin (BSA) and diluted in assay buffer (HBSS containing 20 mM HEPES, 0.1% BSA and 2.5 mM probenecid, pH7.4) for use in the assay at a final concentration of 70 pM. Test compounds are prepared as 10 mM stock solution in DMSO, then diluted in 384-well plates, first in DMSO, then assay buffer. On the day of the assay, cells are washed 3 times with 100 μl assay buffer and then incubated for 60 min (37° C., 5% CO2) in 60 μl assay buffer containing 1 μM Fluo-4AM ester, 0.02% pluronic acid, and 1% BSA. The dye loading solution is then aspirated and cells are washed 3 times with 100 μl assay buffer. 30 μl of that same buffer is left in each well. Within the Fluorescent Imaging Plate Reader (FLIPR, Molecular Devices), test compounds are added to the plate in a volume of 25 μl, incubated for 5 min and finally 25 μl of agonist is added. Fluorescence is measured for each well at 1 second intervals for 5 minutes and the height of each fluorescence peak is compared to the height of the fluorescence peak induced by 70 pM Ala-6,12 orexin-A with buffer in place of antagonist. For each antagonist, IC50 value (the concentration of compound needed to inhibit 50% of the agonist response) is determined. Alternatively, compound potency can be assessed by a radioligand binding assay (described in Bergman et. al. Bioorg. Med. Chem. Lett. 2008, 18, 1425-1430) in which the inhibition constant (Ki) is determined in membranes prepared from CHO cells expressing either the OX1 or OX2 receptor. The intrinsic orexin receptor antagonist activity of a compound which may be used in the present invention may be determined by these assays.

The target in another test is hOX1R (Homo sapiens, UniProt O43613). The test is described as follows: FLIPR Ca2+ flux assay, orexin-1 receptor. The format is cell-based. Particulars: CHO cells expressing the receptor; agonist 70 pM Ala-6,12 orexin-A. (A change in cytosolic calcium serves as a functional read-out for many receptors and channels.)

Sequence of human orexin-2 receptor (hOX2R) (O43614 whole entry): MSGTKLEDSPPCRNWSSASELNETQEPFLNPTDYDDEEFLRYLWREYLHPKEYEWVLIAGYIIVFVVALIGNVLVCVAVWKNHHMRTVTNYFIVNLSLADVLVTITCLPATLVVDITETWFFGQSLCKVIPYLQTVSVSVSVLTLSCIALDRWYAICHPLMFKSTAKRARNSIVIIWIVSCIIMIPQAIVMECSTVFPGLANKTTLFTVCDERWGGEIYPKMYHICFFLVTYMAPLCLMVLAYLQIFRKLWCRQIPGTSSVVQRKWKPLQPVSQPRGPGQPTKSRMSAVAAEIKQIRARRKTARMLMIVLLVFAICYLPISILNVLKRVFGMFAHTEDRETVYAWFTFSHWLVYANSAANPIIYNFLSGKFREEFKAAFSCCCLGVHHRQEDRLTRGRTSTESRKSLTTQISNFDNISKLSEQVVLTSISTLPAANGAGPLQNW

As usually defined, the IC50 is the concentration that gives 50% inhibition. Read a low IC50 as inhibition by little substance. For the molecule `Cc1oc(N2CC3CN(C(=O)c4cccnc4-n4cccn4)CC3C2)nc1C(C)(C)O` (stereo not shown) [Example 18, 2-{5-methyl-2-[5-{[2-(1H-pyrazol-1-yl)pyridin-3-yl]carbonyl}hexahydropyrrolo [3,4-c]pyrrol-2(1H)-yl]-1,3-oxazol-4-yl}propan-2-ol], the IC50 was 0.035 µM in test [1] and 9.85 µM at hOX1R.
On to `Cc1oc(N2CC3CN(C(=O)c4ccccc4N4CCCC4)CC3C2)nc1C(C)(C)O` (stereo not shown) [Example 13, 2-(5-methyl-2-{5-[(2-pyrrolidin-1-ylphenyl)carbonyl]hexahydropyrrolo [3,4-c]pyrrol-2(1H)-yl}-1,3-oxazol-4-yl)propan-2-ol], for which the IC50 in test [1] was 0.049 µM; at hOX1R, above 10 µM.
Taken in the same sequence, the figures for `Cc1oc(N2CC3CN(C(=O)c4nccnc4-n4cccn4)CC3C2)nc1C(C)(C)O` (stereo not shown) [Example 21, 2-{5-methyl-2-[5-{[3-(1H-pyrazol-1-yl)pyrazin-2-yl]carbonyl}hexahydropyrrolo[3,4-c]pyrrol-2(1H)-yl]-1,3-oxazol-4-yl} propan-2-ol] were 0.112 µM and above 10 µM.
Taken in the same sequence, the figures for `Cc1oc(N2CC3CN(C(=O)c4cccnc4OCC(F)F)CC3C2)nc1C(C)(C)O` (stereo not shown) [Example 9, 2-{2-[5-{[2-(2,2-difluoroethoxy)pyridin-3-yl]carbonyl}hexahydropyrrolo [3,4-c]pyrrol-2(1H)-yl]-5-methyl-1,3-oxazol-4-yl} propan-2-ol] were 0.312 µM and above 10 µM.
For the molecule `Cc1oc(N2CC3CN(C(=O)c4ccccc4C4CCC4)CC3C2)nc1C(C)(C)O` (stereo not shown) [Example 12, 2-(2-{5-[(2-cyclobutylphenyl)carbonyl]hexahydropyrrolo[3,4-c]pyrrol-2(1H)-yl}-5-methyl-1,3-oxazol-4-yl)propan-2-ol], the IC50 in test [1] turned out to be 0.023 µM; on hOX1R, 5.3 µM.
In the case of `Cc1oc(N2CC3CN(C(=O)c4ccc(F)cc4-n4nccn4)CC3C2)nc1C(C)(C)O` (stereo not shown) [Example 16, 2-{2-[5-{[4-fluoro-2-(2H-1,2,3-triazol-2-yl)phenyl]carbonyl}hexahydropyrrolo [3,4-c]pyrrol-2(1H)-yl]-5-methyl-1,3-oxazol-4-yl}propan-2-ol], the IC50 in test [1] turned out to be 0.032 µM; on hOX1R, 3.07 µM.
Regarding `Cc1oc(N2CC3CN(C(=O)c4ccccc4OC(F)F)CC3C2)nc1C(C)(C)O` (stereo not shown) [Example 22, 2-{2-[5-{[2-(difluoromethoxy)phenyl]carbonyl}hexahydropyrrolo[3,4-c]pyrrol-2(1H)-yl]-5-methyl-1,3-oxazol-4-yl} propan-2-ol], the IC50 in test [1] is 0.101 µM; on hOX1R, above 10 µM.
With `Cc1oc(N2CC3CN(C(=O)c4ccccc4OC(F)(F)F)CC3C2)nc1C(C)(C)O` (stereo not shown) [Example 4, 2-{5-methyl-2-[5-{[2-(trifluoromethoxy)phenyl]carbonyl}hexahydropyrrolo[3,4-c]pyrrol-2(1H)-yl]-1,3-oxazol-4-yl} propan-2-ol], the IC50 in test [1] is 0.604 µM; at hOX1R, above 10 µM.
With `Cc1oc(N2CC3CN(C(=O)c4ccccc4-n4nccn4)CC3C2)nc1C(C)(C)O` (stereo not shown) [Example 1, (2-(2H-1,2,3-triazol-2-yl)phenyl)(5-(4-(2-hydroxypropan-2-yl)-5-methyloxazol-2-yl)hexahydropyrrolo[3,4-c]pyrrol-2(1H)-yl)methanone], the figures for the IC50 (in test [1]; at hOX1R) were 0.027 µM and 6.88 µM, respectively.
With `Cc1oc(N2CC3CN(C(=O)c4ccccc4OCC(F)(F)F)CC3C2)nc1C(C)(C)O` (stereo not shown) [Example 7, 2-{5-methyl-2-[5-{[2-(2,2,2-trifluoroethoxy)phenyl]carbonyl}hexahydropyrrolo[3,4-c]pyrrol-2(1H)-yl]-1,3-oxazol-4-yl} propan-2-ol], the IC50 in test [1] was 0.165 µM; on hOX1R, above 10 µM.
As for `Cc1oc(N2CC3CN(C(=O)c4cccnc4OCC(F)(F)F)CC3C2)nc1C(C)(C)O` (stereo not shown) [Example 3, 2-{5-methyl-2-[5-{[2-(2,2,2-trifluoroethoxy)pyridin-3-yl]carbonyl}hexahydropyrrolo [3,4-c]pyrrol-2(1H)-yl]-1,3-oxazol-4-yl}propan-2-ol], the IC50 in test [1] is 0.106 µM; on hOX1R it was above 10 µM.
Consider `Cc1oc(N2CC3CN(C(=O)c4cccnc4CC(F)(F)F)CC3C2)nc1C(C)(C)O` (stereo not shown) [Example 10], for which the IC50 in test [1] is 0.046 µM; on hOX1R, above 10 µM.
Consider `Cc1oc(N2CC3CN(C(=O)c4cccnc4OC(C)C)CC3C2)nc1C(C)(C)O` (stereo not shown) [Example 8, 2-{5-methyl-2-[5-{[2-(1-methylethoxy)pyriddin-3-yl]carbonyl}hexahydropyrrolo [3,4-c]pyrrol-2(1H)-yl]-1,3-oxazol-4-yl}propan-2-ol], for which the IC50 in test [1] was 0.126 µM; on hOX1R, above 10 µM.
As to `Cc1oc(N2CC3CN(C(=O)c4cccnc4-c4ccccc4)CC3C2)nc1C(C)(C)O` (stereo not shown) [Example 19, 2-(5-methyl-2-{5-[(2-phenylpyridin-3-yl)carbonyl]hexahydropyrrolo [3,4-c]pyrrol-2(1H)-yl}-1,3-oxazol-4-yl)propan-2-ol], the values for the IC50 (in test [1]; on hOX1R) were 0.06 µM and above 10 µM, respectively.
With `Cc1oc(N2CC3CN(C(=O)c4ccccc4C4CC4(F)F)CC3C2)nc1C(C)(C)O` (stereo not shown) [Example 24, 2-{2-[5-{[2-(2,2-difluorocyclopropyl)phenyl]carbonyl}hexahydropyrrolo[3,4-c]pyrrol-2(1H)-yl]-5-methyl-1,3-oxazol-4-yl}propan-2-ol], the half-maximal inhibitory concentration (IC50) is 0.022 µM in test [1] and above 10 µM at hOX1R.
As for `Cc1oc(N2CC3CN(C(=O)c4ncccc4-n4nccn4)CC3C2)nc1C(C)(C)O` (stereo not shown) [Example 17, 2-{5-methyl-2-[5-{(3-(2H-1,2,3-triazol-2-yl)pyridin-2-yl]carbonyl}hexahydropyrrolo[3,4-c]pyrrol-2(1H)-yl]-1,3-oxazol-4-yl}propan-2-ol], the IC50 in test [1] was 0.084 µM; at hOX1R, above 10 µM.
Consider `Cc1oc(N2CC3CN(C(=O)c4ccccc4CC(F)(F)F)CC3C2)nc1C(C)(C)O` (stereo not shown) [Example 23, 2-{5-methyl-2-[5-{(2-(2,2,2-trifluoroethyl)phenyl]carbonyl}hexahydropyrrolo[3,4-c]pyrrol-2(1H)-yl]-1,3-oxazol-4-yl} propan-2-ol], for which the IC50 in test [1] is 0.23 µM; at hOX1R, above 10 µM.
`CCOc1ncccc1C(=O)N1CC2CN(c3nc(C(C)(C)O)c(C)o3)CC2C1` (stereo not shown) [Example 2, 2-(2-{5-[(2-Ethoxypyridin-3-yl)carbonyl]hexahydropyrrolo[3,4-c]pyrrol-2(1H)-yl}-5-methyl-1,3-oxazol-4-yl)propan-2-ol]: the IC50 is 0.545 µM in test [1] and above 10 µM at hOX1R.
Taken in the same sequence, the figures for `Cc1oc(N2CC3CN(C(=O)c4ccccc4C4CC4)CC3C2)nc1C(C)(C)O` (stereo not shown) [Example 11, 2-(2-{5-[(2-cyclopropylphenyl)carbonyl]hexahydropyrrolo[3,4-c]pyrrol-2(1H)-yl}-5-methyl-1,3-oxazol-4-yl)propan-2-ol] were 0.087 µM and above 10 µM.
With `Cc1oc(N2CC3CN(C(=O)c4ccccc4-n4cccn4)CC3C2)nc1C(C)(C)O` (stereo not shown) [Example 14, 2-{5-methyl-2-[5-{(2-(1H-pyrazol-1-yl)phenyl]carbonyl}hexahydropyrrolo [3,4-c]pyrrol-2(1H)-yl]-1,3-oxazol-4-yl}propan-2-ol], the values for the IC50 (in test [1]; at hOX1R) were 0.072 µM and above 10 µM, respectively.
As for `Cc1oc(N2CC3CN(C(=O)c4ccccc4-n4ncnn4)CC3C2)nc1C(C)(C)O` (stereo not shown) [Example 15, 2-{5-methyl-2-[5-{[2-(2H-tetrazol-2-yl)phenyl]carbonyl}hexahydropyrrolo [3,4-c]pyrrol-2(1H)-yl]-1,3-oxazol-4-yl}propan-2-ol], the IC50 in test [1] was 0.065 µM; on hOX1R it was above 10 µM.
For the molecule `Cc1oc(N2CC3CN(C(=O)c4nccnc4N4CCCC4)CC3C2)nc1C(C)(C)O` (stereo not shown) [Example 20, 2-(5-methyl-2-{5-[(3-pyrrolidin-1-ylpyrazin-2-yl)carbonyl]hexahydropyrrolo[3,4-c]pyrrol-2(1H)-yl}-1,3-oxazol-4-yl) propan-2-ol], the IC50 is 0.252 µM in test [1] and above 10 µM at hOX1R.
With `CCCc1ccccc1C(=O)N1CC2CN(c3nc(C(C)(C)O)c(C)o3)CC2C1` (stereo not shown) [Example 6, 2-(5-methyl-2-{5-[(2-propylphenyl)carbonyl]hexahydropyrrolo[3,4-c]pyrrol-2(1H)-yl}-1,3-oxazol-4-yl)propan-2-ol], the IC50 is 0.032 µM in test [1] and above 10 µM at hOX1R.

The values are drawn from patent US9987255B2, “5,5-bicyclic oxazole orexin receptor antagonists” (Merck Sharp & Dohme Corp., priority 2014, dated 2018).
